Patent US12478594B2, “Methods of treatment of kidney injury associated with infection or trauma” (University of Pittsburgh—Of the Commonwealth System of …, priority 2019, dated 2025)

Experiments:
[1] = system: hemin treated kidney organoids; experiment: Hemin-induced injury of kidney organoids: collagen hybridizing peptide (CHP) staining; type: cell-based, human; conditions: 25 μM hemin two days, then 10 days with 1 μM, 3 μM, and 9 μM compound
Description: A simple bioreactor-based method for growing renal organoids for long periods of time is provided, resulting in tissue with a high degree of maturation. Hemin-induced acute kidney injury produced by the oxidation of the heme of hemoglobin and myoglobin, causing oxidative stress and inflammation. […] These observations indicate that the kidney organoid model of AKI provides a valuable new platform to validate novel compounds in the setting of human AKI.
Organoids were prepared essentially as described in Przepiorski A, Sander V, Tran T, Hollywood J A, Sorrenson B, Shih J H, Wolvetang E J, McMahon A P, Holm™ and Davidson A J. A Simple Bioreactor-Based Method to Generate Kidney Organoids from Pluripotent Stem Cells. Stem Cell Reports. 2018; 11:470-484. As shown in FIG. 8 (A), induced pluripotent stem cells (iPSCs) were cultured for three 3 days in with 8 μM of the Wnt agonist CHIR-99021 (CHIR, e.g., 6-[[2-[[4-(2,4-dichlorophenyl)-5-(5-methyl-1H-imidazol-2-yl)-2-pyrimidinyl]amino]ethyl] amino]-3-pyridinecarbonitrile) in BPEL (BSA poly(vinyl alcohol) essential lipids)), and were then cultured for an additional 11 days in DMEM with Knockout™ Serum Replacement (KOSR). At 14 days, DMEM F12 medium containing 25 μM Hemin (Sigma, H9039) is applied for two days, followed by 10 days with 1 μM, 3 μM, and 9 μM UPHD186 in DMEM with 10% KOSR. UPHD25 was evaluated in the same manner. […]

[2] = system: renal mRNA of inflammation, kidney injury, matrix remodeling, cell cycle, proliferation and fibrosis genes; experiment: CLP sepsis-associated AKI model: renal mRNA expression (quantitative PCR); type: in vivo, Balb/c mice
Excerpt: (§1) Balb/c mice (20-24 weeks old, male and female, Charles River Labs) were used. Mice were subjected to cecal ligation and puncture surgery (CLP) in accordance with methods reported by Rittirsch et al. (Rittirsch D, Huber-Lang M S, Flierd M A, Ward P A: Immunodesign of experimental sepsis by cecal ligation and puncture. Nature protocols 2009, 4(1):31-36). Specifically, Sepsis was induced by ligating 1 cm length of the cecum from the apex and two punctures with a 25-Gauge needle. Animals in the sham group had only laparotomy without any cecal punctures. Post-surgery treatment included 40 mL/kg Ringer's solution after surgery, and ceftriaxone (25 mg/kg), metronidazole (12.5 mg/kg), and buprenorphine (0.05 mg/kg), every 12 hours administered intraperitoneally (i.p.) for 3 days. Septic animals were randomly divided into four groups to receive a seven-day UPHD186 (50 mg/kg/day, i.p.) or vehicle (20% Cyclodextrin-2% DMSO in PBS, i.p.) treatment, starting from 48 hours or 96 hours post-CLP. To determine treatment efficacy, time-serial blood samples (approx. 10 μL) were collected through animals' saphenous vein on the days before/after the treatment session. All mice were followed for survival and sacrificed at the 3rd day post-treatment or the endpoint day 14 to collect kidneys and blood samples.
Total tissue RNA was isolated using TRIzol™ reagent (Life Technologies), DNase kit (Invitrogen), and converted into complementary DNA with High-Capacity cDNA Reverse Transcription Kits (Applied Biosystems). Quantitative polymerase chain reaction was performed on a Mx3000PTM system (Agilent Technologies) using primers (Table 1) and SYBR® Select Master Mix (2×) (Applied Biosystems). The expression of each target gene was assayed in duplicate and presented as fold change normalized by that of the endogenous control gene, gapdh expression.
Kidney samples were examined at mRNA levels for genes controlling inflammation (nfκb, ccl20, traf1, traf2, icam), kidney injury (kim1), and matrix remodeling markers (lox, loxl1). Septic animals had higher levels of gene expression compared to sham controls (FIG. 4). […] (FIG. 3D).
Kidney samples on day 14 (following CLP) were examined for mRNA levels for treatment effects on cell cycle regulation (cdkn1a), proliferation (ki67), and pro-fibrosis genes (plod2, fsp1, col1a1). Septic animals had higher levels of fsp1 and col1a1 expressions compared to sham controls (FIG. 7). Early treatment with UPHD186 further increased fsp1 (fold-increase, 3.3±1.3 vs. corresponding CLP+vehicle controls 2.2±1.1, P<0.05), whereas delayed treatment promoted ki67 and inhibited col1a1 expression (fold-increase, ki67: 1.6±0.7 vs. corresponding controls 1.0±0.5, P<0.01; col1a1, 2.2±0.9 vs. 3.7±2.4, P<0.05) (FIG. 5C). Thus, pro-fibrotic gene expression was increased in the recovery phase and early treatment further aggravated these changes; whereas delayed treatment promoted proliferation and attenuated fibrosis.

[3] = CLP sepsis-associated AKI model: circulating creatinine; type: in vivo, Balb/c mice; conditions: early and delayed treatment regimens
Excerpt: as §1, with “samples. […]” for “samples.”

[4] = system: renal fibrosis and histology injury; experiment: CLP sepsis-associated AKI model: renal histology (Masson's trichrome, hematoxylin & eosin), day 14; type: in vivo, Balb/c mice
Excerpt: as §1
The left kidney was flushed with 10 mL ice-cold PBS, 10 mL 10% formalin through the left ventricle immediately after euthanasia, and the kidney was collected. For immunofluorescence staining, half of the kidney was fixed in 10% formalin for 2 h on ice, incubated in 30% (vol/vol) sucrose at 4° C. overnight, snap frozen in OCT (Sakura FineTek), and cut into 7-μm sections. Sections were treated with heated citrate (Antigen Unmasking Solution, Vector Laboratories), blocked in 10% (vol/vol) normal goat serum (Vector Laboratories) in 0.3M glycine-PBST for 1 h RT, incubated with primary antibodies at 4° C. overnight, and then corresponding secondary antibodies (Jackson ImmunoResearch) in PBS containing 10% of the blocking solution for 1 h RT. Stained sections were mounted in mounting Medium with DAPI (Vectashield H-1000, Vector Laboratories), and stored at −20° C. until observed under confocal microscopy (Fluoview 1000, Olympus). Three washes with PBST were performed between each step. […] Semiquantitative renal histology injury scoring was assessed by an investigator blinded to group assignment and the percentage of fibrosis per area was quantified using ImageJ (https://imagej.nih.gov/ij/; National Institutes of Health). […]

[5] = system: septic mice (cecal ligation and puncture); experiment: CLP sepsis-associated AKI model: sepsis survival to day 14; type: in vivo, Balb/c mice; conditions: 50 mg/kg/day i.p. 7 days
Excerpt: as §1, with “To determine treatment efficacy, time-serial blood samples (approx. 10 μL) were collected through animals' saphenous vein on the days before/after the treatment session. All mice were followed for survival and sacrificed at the 3rd day post-treatment or the endpoint day 14 to collect kidneys and blood samples.” left out
Graph and statistical analyses were performed using GraphPad Prism 8 (GraphPad Software). […] Tukey's test was used to determine significance of differences among multiple groups and t test between two groups; survival rates were analyzed using log-rank Mantel-Cox test. […]

IL6 = experiment: CLP sepsis-associated AKI model: circulating cytokine IL6 (ELISA); type: in vivo, Balb/c mice; conditions: early and delayed treatment regimens
Excerpt: as §1, with “samples. […]” for “samples.”

[6] = system: F4/80+ mononuclear cells in the kidneys; experiment: CLP sepsis-associated AKI model: kidney monocytes and their phenotype (immunofluorescence), day 3 post-treatment; type: in vivo, Balb/c mice; conditions: for F4/80+ cell numbers in the kidneys: 50 mg/kg/day i.p.
Excerpt: as §1
The left kidney was flushed with 10 mL ice-cold PBS, 10 mL 10% formalin through the left ventricle immediately after euthanasia, and the kidney was collected. For immunofluorescence staining, half of the kidney was fixed in 10% formalin for 2 h on ice, incubated in 30% (vol/vol) sucrose at 4° C. overnight, snap frozen in OCT (Sakura FineTek), and cut into 7-μm sections. Sections were treated with heated citrate (Antigen Unmasking Solution, Vector Laboratories), blocked in 10% (vol/vol) normal goat serum (Vector Laboratories) in 0.3M glycine-PBST for 1 h RT, incubated with primary antibodies at 4° C. overnight, and then corresponding secondary antibodies (Jackson ImmunoResearch) in PBS containing 10% of the blocking solution for 1 h RT. Stained sections were mounted in mounting Medium with DAPI (Vectashield H-1000, Vector Laboratories), and stored at −20° C. until observed under confocal microscopy (Fluoview 1000, Olympus). Three washes with PBST were performed between each step. The primary antibodies were: goat anti-ICAM (R&D Systems), rabbit anti-Col1 (Novus Biologicals), rabbit anti-fibronectin (Abcam), rabbit anti-vimentin (Abcam), rat anti-F4/80 (Abcam), rabbit anti-iNOS (Abcam), and phalloidin (Thermo Fisher Scientific) was used for staining of the brush-boarder. For immunohistochemistry analysis, the infused kidney was fixed in 10% formalin at 4° C. overnight, embedded in paraffin, and cut into 5-μm sections. Hematoxylin & eosin and Masson's trichrome stain were performed. Semiquantitative renal histology injury scoring was assessed by an investigator blinded to group assignment and the percentage of fibrosis per area was quantified using ImageJ (https://imagej.nih.gov/ij/; National Institutes of Health).
Kidney samples collected at day 3 post-treatment were examined for presence numbers of monocytes in the kidney and their phenotypes (monocytes: F4/80^+, M1: F4/80^+iNOS^+, M2: F4/80^+MR^+).

IGFBP7 = experiment: CLP sepsis-associated AKI model: renal IGFBP7 expression, day 14; type: in vivo, Balb/c mice
Excerpt: as §1
The left kidney was flushed with 10 mL ice-cold PBS, 10 mL 10% formalin through the left ventricle immediately after euthanasia, and the kidney was collected. For immunofluorescence staining, half of the kidney was fixed in 10% formalin for 2 h on ice, incubated in 30% (vol/vol) sucrose at 4° C. overnight, snap frozen in OCT (Sakura FineTek), and cut into 7-μm sections. […] Semiquantitative renal histology injury scoring was assessed by an investigator blinded to group assignment and the percentage of fibrosis per area was quantified using ImageJ (https://imagej.nih.gov/ij/; National Institutes of Health).
Renal expression/location of the kidney stress marker insulin-like growth factor-binding protein 7 (IGFBP7) was measured at Day-14 kidneys. […]

Compound: COC(=O)CCCSc1ccccc1 [UPHD25, methyl 4-(phenylsulfanyl)butanoate]
- collagen (CHP staining), fibrosis [1]: reduction of collagen

Compound: O=C(CCCSc1ccccc1)Nc1ccccc1O [UPHD186, N-(2-hydroxyphenyl)-4-(phenylsulfanyl)butanamide]
- collagen (CHP staining), fibrosis [1]: reduced
- inflammation, kidney injury and matrix remodeling marker mRNA (nfκb, ccl20, traf1, traf2, icam, kim1, lox, loxl1), effect ([2]; delayed treatment, day 3 post-treatment, compared to CLP controls): no effect on any marker expressions
- ki67 renal mRNA ([2]; delayed treatment, day 14 after CLP, controls 1.0±0.5): 1.6±0.7 fold-increase
- col1a1 renal mRNA ([2]; delayed treatment, day 14 after CLP, controls 3.7±2.4): 2.2±0.9 fold-increase
- loxl1 renal mRNA ([2]; early treatment, day 3 post-treatment, CLP 10.5±5.7): 5.0±2.3 fold-increase
- icam1 renal mRNA ([2]; early treatment, day 3 post-treatment, CLP 25.3±4.1): 9.1±2.3 fold-increase
- traf2 renal mRNA ([2]; early treatment, day 3 post-treatment, CLP 32.5±6.9): 12.2±3.0 fold-increase
- traf1 renal mRNA ([2]; early treatment, day 3 post-treatment, CLP 51.5±9.1): 17.1±3.6 fold-increase
- cdkn1a renal mRNA, effect ([2]; early treatment, day 14 (FIG. 5C)): increased cdkn1a
- fsp1 renal mRNA ([2]; early treatment, day 14 after CLP, CLP+vehicle 2.2±1.1): 3.3±1.3 fold-increase
- circulating creatinine, treatment effect [3]: neither creatinine (FIG. 5B) nor cytokine IL6 (FIG. 6) were affected
- histology injury score ([4]; delayed treatment, vehicle 2.1±1.0, P=0.13): 1.4±1.0
- collagen volume fraction ([4]; delayed treatment, vehicle 26.2±7.6, P=0.08): 21.2±4.8%
- histology injury score ([4]; early treatment, CLP vehicle 1.7±0.9): 2.6±1.3
- collagen volume fraction ([4]; early treatment, CLP vehicle 28.4±4.3): 27.6±4.3%
- survival rate by day 14 ([5]; delayed treatment (96 h), vehicle 39%, P<0.01): 79%
- survival rate by day 14 ([5]; early treatment (48 h), vehicle 54%, P=0.32): 69%
- circulating cytokine IL6, treatment effect (IL6): neither creatinine (FIG. 5B) nor cytokine IL6 (FIG. 6) were affected
- iNOS expression intensities (M1 marker) ([6]; delayed treatment (96 h post-CLP), CLP vehicle 3.1±1.4): 1.4±0.3
- F4/80+ cell numbers in the kidneys ([6]; delayed treatment (from 96 h post-CLP), CLP vehicle 52.4±32.9): 40.6±24.7 cells/field
- MR expression (M2 marker), treatment effect ([6]; early and delayed treatment groups): no treatment effects were observed
- iNOS expression intensities (M1 marker) ([6]; early treatment (48 h post-CLP), CLP vehicle 1.2±0.7): 2.7±0.3
- F4/80+ cell numbers in the kidneys ([6]; early treatment (from 48 h post-CLP), CLP vehicle 41.2±26.1): 15.7±7.7 cells/field
- overall IGFBP7 renal expression, effect (IGFBP7; delayed treatment, day 14): no such effect
- secretory pattern of IGFBP7, effect (IGFBP7; early and delayed treatment regimens, day 14 (data not shown)): neither treatment regimens changed the secretory pattern of IGFBP7
- overall IGFBP7 renal expression (IGFBP7; early treatment, day 14, CLP 396.9±109.0): 674.1±190.5
